Laboratory results: PubChem BioAssay (NCI)
Values joined by “and” are separate entries in the source; they are usually repeats but may differ in a detail not shown here. Identical values can stand only once.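 Assay format: 96-well plates, 48-hour exposure. The concentration for 50% growth inhibition is given as GI50. TGI is the concentration that stops growth completely.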

Columns and labels:
Assay in all cases: NCI anticancer screen, dose series, 48 h
[1] = system: HCC-2998 colon
[2] = system: HCT-116 colon
[3] = system: HCT-15 colon
[4] = system: HS 578T breast
[5] = system: MDA-MB-435
[6] = system: MDA-N
[7] = system: PC-3 prostate
[8] = system: RXF 393 renal
[9] = system: SF-295 CNS
[10] = system: SN12C renal

Oc1cc2c3c(c1)c1cc4c(cc1c[n+]3CC2)OCO4
TGI [1]: 25.9 µM | TGI [2]: > 40.5 µM | TGI [3]: > 100 µM | TGI [4]: 13.6 µM | TGI [5]: > 55 µM | TGI [6]: > 100 µM | TGI [7]: 37.3 µM | TGI [8]: > 68.8 µM | TGI [9]: > 100 µM | TGI [10]: 5.71 µM

C=C(Br)C(C)(Cl)CCC(Br)C(C)(C)Cl (centres undefined)
TGI [1]: > 100 µM | TGI [2]: > 100 µM | TGI [3]: > 100 µM | TGI [4]: > 100 µM | TGI [5]: 86.3 µM | TGI [6]: > 100 µM | TGI [7]: > 100 µM | TGI [8]: 65.1 µM | TGI [9]: > 100 µM | TGI [10]: > 100 µM

O=[N+]([O-])C(=C1NCCN1)/C(Cl)=C(\Cl)Br
TGI [1]: > 100 µM | TGI [2]: > 73.2 µM | TGI [3]: 7.93 µM | TGI [4]: > 100 µM | TGI [5]: > 63.2 µM | TGI [6]: > 100 µM | TGI [7]: > 100 µM | TGI [8]: 39.1 µM | TGI [9]: > 100 µM | TGI [10]: > 100 µM

CCCNC1=C2CC(C)CC(OC)[C@@H](O)[C@H](C)/C=C(\C)C(OC(N)=O)C(OC)/C=C\C=C(/C)C(=O)NC(=CC1=O)C2=O (some centres undefined)
GI50 [1]: 0.359 µM | TGI [1]: 3.23 µM and 13.1 µM | GI50 [2]: 0.0589 µM | TGI [2]: > 100 µM | GI50 [3]: 0.46 µM | TGI [3]: 28.1 µM | GI50 [4]: 0.625 µM | TGI [4]: 36.8 µM | GI50 [5]: 0.0903 µM | TGI [5]: 28.8 µM | GI50 [6]: 0.0757 µM | TGI [6]: 17.1 µM | GI50 [7]: 0.477 µM | TGI [7]: > 100 µM | GI50 [8]: 13.8 µM | TGI [8]: 48.7 µM | TGI [9]: 19.9 µM | GI50 [10]: 0.235 µM | TGI [10]: 28.7 µM

COc1c(C)c(C/C=C(\C)CCCCO[Si](c2ccccc2)(c2ccccc2)C(C)(C)C)c(OC)c(OC)c1OC
TGI [1]: > 46.4 µM | TGI [2]: > 46.4 µM | TGI [3]: > 46.4 µM | TGI [4]: > 100 µM | TGI [5]: > 46.4 µM | TGI [6]: > 46.4 µM | TGI [7]: > 100 µM | TGI [8]: > 100 µM | TGI [9]: > 46.4 µM | TGI [10]: > 46.3 µM

Nc1cccc2cc(Cl)cnc12
TGI [1]: > 100 µM | TGI [2]: > 100 µM | TGI [3]: > 100 µM | TGI [4]: > 100 µM | TGI [5]: > 100 µM | TGI [6]: > 100 µM | TGI [7]: > 100 µM | TGI [8]: > 100 µM | TGI [9]: > 100 µM | TGI [10]: > 100 µM

N=c1n(C(=O)N2CCCC2)c2cc(Cl)ccc2n1C1=NCCN1
TGI [1]: > 100 µM | TGI [2]: > 100 µM | TGI [3]: > 100 µM | TGI [4]: > 100 µM | TGI [5]: > 100 µM | TGI [6]: > 100 µM | TGI [7]: > 100 µM | TGI [8]: > 100 µM | TGI [9]: > 100 µM | TGI [10]: > 100 µM

FC(F)(F)c1cc(Cl)cnc1N/N=C(/c1ccccc1)c1ccccn1
TGI [1]: > 100 µM | TGI [2]: 19.2 µM | TGI [3]: > 100 µM | TGI [4]: 5.98 µM | TGI [5]: > 100 µM | TGI [6]: > 100 µM | TGI [7]: 89.7 µM | TGI [8]: 40.9 µM | TGI [9]: 5.5 µM | TGI [10]: > 100 µM

CCOC(=O)C(NC(C)=O)(Nc1ccc(F)cc1)C(F)(F)F (centres undefined)
TGI [1]: > 100 µM | TGI [2]: > 100 µM | TGI [3]: > 100 µM | TGI [4]: > 100 µM | TGI [5]: > 100 µM | TGI [6]: > 100 µM | TGI [7]: > 100 µM | TGI [8]: > 100 µM | TGI [9]: > 100 µM | TGI [10]: > 100 µM

O=C(O)CN(CC(=O)O)C1CCCCC1N(CC(=O)O)CC(=O)NCCN=C=S (centres undefined)
TGI [1]: > 100 µM | TGI [2]: > 100 µM | TGI [3]: > 100 µM | TGI [4]: > 100 µM | TGI [5]: > 100 µM | TGI [6]: > 100 µM | TGI [7]: > 100 µM | TGI [8]: > 100 µM | TGI [9]: > 100 µM | TGI [10]: > 100 µM

COc1cc(/C=C2\S/C(=N/Nc3nc(-c4ccc(Br)cc4)cs3)NC2=O)cc(OC)c1OC
TGI [1]: 32.5 µM | TGI [2]: 17.2 µM | TGI [3]: 36.1 µM | TGI [4]: 89.5 µM | TGI [5]: 46.3 µM | TGI [6]: 75.1 µM | TGI [7]: 18.6 µM | TGI [8]: 19.4 µM | TGI [9]: 36.6 µM | TGI [10]: > 100 µM

Oc1ccc(-c2nc(-c3cccnc3)c(-c3ccc(F)cc3)[nH]2)cc1
TGI [1]: 40.3 µM | TGI [2]: 32.9 µM | TGI [3]: 64.5 µM | TGI [4]: 46.4 µM | TGI [5]: 31.1 µM | TGI [6]: 37.5 µM | TGI [7]: 35.2 µM | TGI [8]: 33.9 µM | TGI [9]: 32 µM | TGI [10]: 54.6 µM

N#CC1=C(N)N(c2ccccc2)C(c2ccco2)C1(C#N)C#N (centres undefined)
TGI [1]: 31.3 µM | TGI [2]: > 100 µM | TGI [3]: 43.2 µM | TGI [4]: > 100 µM | TGI [5]: 71.8 µM | TGI [6]: > 100 µM | TGI [7]: 60.5 µM | TGI [8]: 37.1 µM | TGI [9]: 93.9 µM | TGI [10]: > 100 µM

O=[N+]([O-])/C(C(Cl)=C(Cl)Cl)=C(\SCc1ccccc1)N1CCCCC1
TGI [1]: 45.7 µM | TGI [2]: 31.3 µM | TGI [3]: 49.7 µM | TGI [4]: > 100 µM | TGI [5]: 35.5 µM | TGI [6]: 50.3 µM | TGI [7]: 74.8 µM | TGI [8]: 62.6 µM | TGI [9]: 81.9 µM | TGI [10]: 47.6 µM

O=C(CCC(=O)c1ccc(Cl)cc1)NO
TGI [1]: > 100 µM | TGI [2]: > 100 µM | TGI [3]: > 100 µM | TGI [4]: > 100 µM | TGI [5]: > 100 µM | TGI [6]: > 100 µM | TGI [7]: > 100 µM | TGI [8]: > 100 µM | TGI [9]: > 100 µM | TGI [10]: > 100 µM
